{"source": "paper PMC8264259", "about": "“A Novel Ruthenium(II) Complex With Lapachol Induces G2/M Phase Arrest Through Aurora-B Kinase Down-Regulation and ROS-Mediated Apoptosis in Human Prostate Adenocarcinoma Cells” (Frontiers in Oncology, 2021)", "key": {"DU-145 cells [1]": {"test_system": "DU-145 cells", "assay": "Clonogenic assay", "format": "cell-based, human", "settings": "24 h treatment, colonies after 7 days", "description": "The clonogenic assay was performed in accordance with the guidelines of ([34]). […] DMSO (0.1% v/v) was used as the vehicle control. After 24 h, the cells were washed with PBS (Gibco-Invitrogen®) and harvested by trypsinization. Cells were counted using a Neubauer chamber and replated then on cell culture dishes of 21.5 cm^2 in a density of 200 cells per culture dish for each treatment in triplicate. After 7 days, cells were fixed in ice-cold methanol: acetic acid: distilled water (1:1:8), air-dried, and stained with crystal violet (0.5% w/v, Sigma-Aldrich) for 20 min. Colonies with at least 50 cells were counted. Plating efficiency (PE) of DU-145 cells was calculated by the ratio of the number of colonies observed after 7 days of incubation to the number of cells seeded (two hundred). The average of colonies in control was considered as 100%, and the number of colonies that arise after treatment of cells is called the surviving fraction (SF), obtained by:\nSF = Numberofcoloniescountedineachtreatment/Numberofcoloniescountedincontrol x PE × 100"}, "DU-145 cells [2]": {"test_system": "DU-145 cells", "assay": "Gene expression analysis by qPCR array (Human Cancer Drug Targets)", "format": "cell-based", "settings": "DU-145, 1.0 µM, 12 h, mRNA, ΔΔCt vs vehicle", "description": "Briefly, DU-145 cells were seeded (1.0 × 10^6 cells/well) into six-well plates and maintained to attach at 37°C in 5% CO2. After 24 h, the cells were treated with 1.0 μM of the complex (2). DMSO (0.1% v/v) was used as the vehicle control. After 12 h of incubation, total RNA was isolated from the cells using the RNeasy® Mini kit (Qiagen, Germany) according to the manufacturer’s instructions. RNA was quantified by NanoDrop spectrophotometer (ND-2000; Thermo Fischer Scientific). The Agilent 2100 Bioanalyzer and Agilent RNA 6000 Nanochip kits were used to assess the total RNA quality as per manual instruction (Agilent, USA). The Agilent 2100 Expert software (Version B.02.07.SI532) was used with the Eukaryote Total RNA Nano assay on the Agilent 2100 bioanalyzer. No significant differences in RIN values were observed across the samples. Complementary DNA strands were synthesized using the RT^2 First Strand kit (Qiagen, Germany), following the manufacturer’s instructions. Gene expression profiling was performed using the RT^2 Profiler™ PCR Array Human Cancer Drug Targets (PAHS 507Z, Qiagen) by qPCR. The reactions were conducted in the Applied Biosystems 7500 PCR System (Applied Biosystems, USA) thermocycler. The plate was heated to 95°C for 10 min, followed by 40 cycles of 95°C for 15 s and 60°C for 1 min, followed by the dissociation curve. The expression profile of 84 key drug targets genes was analyzed. Fold changes amplification for targeted genes was normalized to the housekeeping genes GAPDH and RPLP0 by the delta–delta cycle threshold method (ΔΔCt), and the cells treated with vehicle control (0.1% of DMSO v/v) was used as calibrator. The threshold cycle values of control wells were all within the ranges recommended by the PCR array user manual. Three independent biological replicates were performed. All experiments were performed in DNase/RNase free conditions. Genes were considered differentially regulated if the difference was ≥1.8-fold, which means that the gene expression in the compound-treated cells was at 1.8-fold that in the negative control-treated cells. Differences were considered significant at p ≤ 0.05. Statistical analysis of two groups was performed automatically according to the GeneGlobe Data Analysis Center (Qiagen, USA; https://geneglobe.qiagen.com/us/analyze)."}, "PNT-2 cells": {"test_system": "PNT-2 cells", "assay": "Comet assay, PNT-2", "format": "cell-based, human", "description": "The comet assay was performed to evaluate DNA damage following the method described by ([37]). Briefly, DU-145 and PNT-2 cells were seeded (1.0 × 10^5 cells/well) in 24-well plates and maintained to attach at 37°C in 5% CO2 for 24 h. After, cells were treated with different concentrations of complex (2) for 24 h. DMSO (0.1% v/v) was used as the vehicle control and methyl methanesulfonate (150 μM, Sigma-Aldrich) as DNA damage inducer. Following 24 h of incubation, the cells were collected, and cell viability assay was performed using trypan blue dye. […] Then, cells were mixed with UltraPure™ Low-Melting-Point Agarose (0.5%, Invitrogen®), and added on pre-coated slides with UltraPure™ Agarose (1.5%, Invitrogen®). After agarose solidification, the slides were immersed in a lysis solution (2.5 M NaCl, 100 mM EDTA, 10 mM Tris, 10% DMSO, 1% Triton X-100, pH 10.4) for 18 h at 4°C. […] The nucleoids were identified in a fluorescence microscope (AxioStar Plus, Carl Zeiss Axio Cam MRc-AxioVision 3.1) using a 516 to 560 nm filter, 590 nm filter barrier, in 20× objective with an integrated digital camera. For each treatment, 100 random nucleoids were analyzed, and the tail fluorescence was measured through the Comet Assay IV™ imaging system (Perceptive Instruments^©, Bury St Edmunds, England)."}, "pBR322 plasmid DNA": {"test_system": "pBR322 plasmid DNA", "assay": "DNA interactions assay with pBR322 plasmid (agarose gel electrophoresis)", "format": "biochemical", "settings": "1.0 μM, 37°C, 18 h", "description": "Plasmid pBR322 (38 µM, Sigma-Aldrich) was mixed with different concentrations (0.125–1.0 µM) of both complexes and incubated at 37°C for 18 h. Then, the loading buffer was added and the samples were analyzed by agarose gel electrophoresis for 90 min in 1% agarose gel using a Tris-acetate-EDTA (TAE) buffer (0.45 M Tris-HCl, 0.45 M acetic acid, 10 mM EDTA, pH 7.4), and ethidium bromide was employed for staining. Bands were visualized with a ChemiDoc MP imager (BioRad, USA)."}}, "data": [{"smiles": "CC(C)=CCC1=C([O-])C(=O)c2ccccc2C1=O.F[P-](F)(F)(F)(F)F.[Ru+2].c1ccc(-c2ccccn2)nc1.c1ccc(P(CP(c2ccccc2)c2ccccc2)c2ccccc2)cc1", "note": "[complex (1), [Ru(Lap)(dppm)(bipy)]PF6]", "values": [{"measurement": "survival fraction (SF)", "setting": "DU-145 cells [1]; DU-145, 0.125 μM", "result": 65.1, "unit": "%"}, {"measurement": "survival fraction (SF)", "setting": "DU-145 cells [1]; DU-145, 0.25 μM", "result": 35.1, "unit": "%"}, {"measurement": "survival fraction (SF)", "setting": "DU-145 cells [1]; DU-145, 0.5 μM", "result": 18.3, "unit": "%"}, {"measurement": "survival fraction (SF)", "setting": "DU-145 cells [1]; DU-145, 1.0 μM", "result": 9.0, "unit": "%"}, {"measurement": "survival fraction (SF)", "setting": "DU-145 cells [1]; DU-145, 1.5 μM", "result": 4.3, "unit": "%"}]}, {"smiles": "CC(C)=CCC1=C([O-])C(=O)c2ccccc2C1=O.F[P-](F)(F)(F)(F)F.[Ru+2].c1ccc(P(CP(c2ccccc2)c2ccccc2)c2ccccc2)cc1.c1cnc2c(c1)ccc1cccnc12", "note": "[complex (2), [Ru(Lap)(dppm)(phen)]PF6]", "values": [{"measurement": "Fold change, AKT1", "setting": "DU-145 cells [2]", "result": "−2.6", "unit": "fold"}, {"measurement": "Fold change, AKT2", "setting": "DU-145 cells [2]", "result": "−2.6", "unit": "fold"}, {"measurement": "Fold change, AURKA", "setting": "DU-145 cells [2]", "result": -5.3, "unit": "fold"}, {"measurement": "Fold change, AURKB", "setting": "DU-145 cells [2]", "result": -11.1, "unit": "fold"}, {"measurement": "Fold change, AURKC", "setting": "DU-145 cells [2]", "result": -3.0, "unit": "fold"}, {"measurement": "Fold change, BCL2", "setting": "DU-145 cells [2]", "result": -4.1, "unit": "fold"}, {"measurement": "Fold change, BIRC5", "setting": "DU-145 cells [2]", "result": -6.4, "unit": "fold"}, {"measurement": "Fold change, CDC25A", "setting": "DU-145 cells [2]", "result": "−2.6", "unit": "fold"}, {"measurement": "Fold change, CDK1", "setting": "DU-145 cells [2]", "result": -4.5, "unit": "fold"}, {"measurement": "Fold change, CDK2", "setting": "DU-145 cells [2]", "result": "−2.7", "unit": "fold"}, {"measurement": "Fold change, CDK4", "setting": "DU-145 cells [2]", "result": -4.6, "unit": "fold"}, {"measurement": "Fold change, CDK5", "setting": "DU-145 cells [2]", "result": "−3.2", "unit": "fold"}, {"measurement": "Fold change, EGFR", "setting": "DU-145 cells [2]", "result": "−4.1", "unit": "fold"}, {"measurement": "Fold change, ERBB2", "setting": "DU-145 cells [2]", "result": "−2.4", "unit": "fold"}, {"measurement": "Fold change, GSTP1", "setting": "DU-145 cells [2]", "result": "−2.9", "unit": "fold"}, {"measurement": "Fold change, HDAC8", "setting": "DU-145 cells [2]", "result": "−1.8", "unit": "fold"}, {"measurement": "Fold change, IGF1R", "setting": "DU-145 cells [2]", "result": "−2.7", "unit": "fold"}, {"measurement": "Fold change, MDM4", "setting": "DU-145 cells [2]", "result": 2.8, "unit": "fold"}, {"measurement": "Fold change, MTOR", "setting": "DU-145 cells [2]", "result": "−3.8", "unit": "fold"}, {"measurement": "Fold change, PARP1", "setting": "DU-145 cells [2]", "result": "−2.7", "unit": "fold"}, {"measurement": "Fold change, PARP2", "setting": "DU-145 cells [2]", "result": "−3.0", "unit": "fold"}, {"measurement": "Fold change, PDGFRB", "setting": "DU-145 cells [2]", "result": "−2.0", "unit": "fold"}, {"measurement": "Fold change, PIK3CA", "setting": "DU-145 cells [2]", "result": "−2.7", "unit": "fold"}, {"measurement": "Fold change, PTGS2", "setting": "DU-145 cells [2]", "result": 2.1, "unit": "fold"}, {"measurement": "Fold change, TOP2A", "setting": "DU-145 cells [2]", "result": "−2.1", "unit": "fold"}, {"measurement": "Fold change, TOP2B", "setting": "DU-145 cells [2]", "result": "−2.8", "unit": "fold"}, {"measurement": "survival fraction (SF)", "setting": "DU-145 cells [1]; DU-145, 0.125 μM", "result": 58.0, "unit": "%"}, {"measurement": "survival fraction (SF)", "setting": "DU-145 cells [1]; DU-145, 0.25 μM", "result": 17.7, "unit": "%"}, {"measurement": "survival fraction (SF)", "setting": "DU-145 cells [1]; DU-145, 0.5 μM", "result": 4.3, "unit": "%"}, {"measurement": "survival fraction (SF)", "setting": "DU-145 cells [1]; DU-145, 1.0 μM", "result": 0, "unit": "%"}, {"measurement": "survival fraction (SF)", "setting": "DU-145 cells [1]; DU-145, 1.5 μM", "result": 0, "unit": "%"}, {"measurement": "DNA damage (comet tail intensity)", "setting": "PNT-2 cells; PNT-2, maximum tested concentration 6.0 μM (~IC50), 24 h", "result": "increase in DNA damage"}, {"measurement": "DNA damage (comet tail intensity)", "setting": "PNT-2 cells; PNT-2 prostate normal cells, same concentrations as DU-145, 24 h", "result": "no DNA damage"}, {"measurement": "nuclease activity on pBR322 (supercoiled to linear)", "setting": "pBR322 plasmid DNA", "result": "single-strand DNA cleavage"}]}]}
